Data as given in PMC9256669, “Monomethyl auristatin antibody and peptide drug conjugates for trimodal cancer chemo-radio-immunotherapy” (Nature Communications, 2022).
Where “and” joins values, the source holds several entries; their conditions need not be identical. Equal values may be shown once. Non-standard residues stand in square brackets, D forms with d. Residues, ends and D or L forms follow the SMILES beside them. *: point of attachment. Dolaproine = CO[C@@H]([C@@H]1CCCN1)[C@@H](C)C(=O)O; Dil = CC[C@H](C)[C@H](NC)[C@@H](CC(=O)O)OC; X1 = C[C@@H](N*)[C@@H](O)c1ccccc1; NMeV = CN[C@H](C(=O)O)C(C)C

Tests used:
[1] = Mouse body weight (safety of MMAE with IR, with or without anti-PD-1); details: ACPP-MMAE and IR
Excerpt: LL/2 cells treated with dose range of MMAE overnight and then […] in drug free media for 7-10 days to allow for visualized colonies to form.
Statistical significances calculated using one-way ANOVA with Tukey’s multiple comparisons test. 0.9 b) Cell cycle analysis […]
of MMAE treated LL/2 cells, mean ± SD, n=2. […]
experiments. c) Clonogenic survival of LL/2 cells treated with MMAE and 2 Gy (SF2). Cell Days viability normalized to non-irradiated cells for each drug condition and plotted as mean fractional survival ± SEM, n=6. Statistical significances calculated using one-way ANOVA with Sidak’s multiple comparisons test. d) Tumor volumes (n=10) and mouse body weights (n=5) of mice from experiments in Fig. 3e. Tumor volumes plotted as mean volume of surviving mice ± SEM.
Mouse body weight were normalized to each mouse’s weight on day 0, i.e. tumor implantation.
Data plotted as mean fractional body weight ± SEM. e) Mouse body weights of mice (n=5) from experiments in Fig. 4h were normalized to each mouse’s weight on day of tumor implantation.
Data is plotted as individual normalized body weights. f) Mouse body weights of mice from experiments in Fig. 5e, f were normalized to each mouse’s weight on day of tumor implantation.
Source data are provided in Source Data file.

B16 cells = assay: NanoString PanCancer IO 360 gene expression and gene set analysis of MMAE-treated cells; type: cell-based, murine
Procedure: RNA was isolated from cells or tumor tissues and comprehensive immune profiling was analyzed using the NanoString PanCancer IO 360 Panel and NanoString nCounter PanCancer Mouse Immune Profiling gene expression platforms. Gene set analysis with calculated global significance scores and directed significance scores were calculated for treated cells. The Advanced Analysis module of the nSolver software was used to analyze genes associated with listed immune cells in tumors and given a Z-score (n = 3 mice per group). Expression levels of GZMB were analyzed using real-time quantitative PCR. Reverse transcription was performed with the iScript cDNA synthesis kit (Biorad), using aliquots of total RNA extracted with RNeasy Plus Mini Kit (Qiagen). Gene-specific primers were GZMB-F […] and GZMB-R […]. Real-time PCR reactions were performed using the CFX Connect Real-Time PCR System (Biorad) and the amplifications were done using the iTaq Universal SYBR Green Supermix (Biorad). qPCR data were analyzed using the Bio-Rad CFX Maestro software. […]
a Undirected Directed Enrichment
Pathway # of Genes Enrichment Score Score
Gene Name Supplementary Figure 1: Gene
Mdm2 expression analysis of MMAE treated
Casp3 cells. B16 cells exposed to 5 nM MMAE for
Bcl2l1 72 hrs. RNA collected and analyzed using Cd68 murine NanoString PanCancer IO 360
Thbs1 Panel. a) Gene set analysis with calculated
Gls global significance scores and directed
Fstl3 significance scores. b) Heatmap depicting
Mfge8 2 differential gene expression of 36 genes
Brd3 1 control and MMAE treated cells. Source
Pias4 0 data are provided in Source Data file under
Fzd9 tab labeled Figure 1b.
Supplementary Data 1: Complete NanoString expression data of Figure 1b. Untreated control (n=2) and 5 nM MMAE treated (n=3) B16 cells were harvested at 72 hrs. RNA was collected and analyzed using NanoString PanCancer IO 360 Panel. Individual normalized RNA expression values shown for each gene. […]

[2] = 5 nM MMAE 72 hrs, gene set analysis
[3] = 5 nM MMAE 72 hrs, samples MMAE_5, MMAE_1, MMAE_3

cyclo(RGD)fc-MC-HN-peg8-e9-oPLGC(Me)AG-r9-c-(MC-VC-PABC-MMAE)-CONH2 [ACPP-MMAE]
adverse effects on mouse well-being by body weight [1]: no adverse effects

CC[C@H](C)[C@@H]([C@@H](CC(=O)N1CCC[C@H]1[C@H](OC)[C@@H](C)C(=O)N[C@H](C)[C@@H](O)c1ccccc1)OC)N(C)C(=O)[C@@H](NC(=O)[C@@H](NC)C(C)C)C(C)C [MMAE, monomethyl auristatin E] (H-[NMeV]V[Dil][Dolaproine]-X1)
Directed Enrichment Score: Angiogenesis (B16 cells; [2]): 1.8412
Directed Enrichment Score: Antigen Presentation (B16 cells; [2]): 0.8121
Directed Enrichment Score: Apoptosis (B16 cells; [2]): 0.9856
Directed Enrichment Score: Autophagy (B16 cells; [2]): -3.279
Directed Enrichment Score: Cell Proliferation (B16 cells; [2]): -0.7774
Directed Enrichment Score: Costimulatory Signaling (B16 cells; [2]): -1.9366
Directed Enrichment Score: Cytokine and Chemokine Signaling (B16 cells; [2]): -1.4236
Directed Enrichment Score: Cytotoxicity (B16 cells; [2]): 0.8779
Directed Enrichment Score: DNA Damage Repair (B16 cells; [2]): -1.9501
Directed Enrichment Score: Epigenetic Regulation (B16 cells; [2]): -1.7988
Directed Enrichment Score: Hedgehog Signaling (B16 cells; [2]): -2.2414
Directed Enrichment Score: Hypoxia (B16 cells; [2]): -2.4508
Directed Enrichment Score: Immune Cell Adhesion and Migration (B16 cells; [2]): -1.0133
Directed Enrichment Score: Interferon Signaling (B16 cells; [2]): 0.9986
Directed Enrichment Score: JAK-STAT Signaling (B16 cells; [2]): -1.657
Directed Enrichment Score: Lymphoid Compartment (B16 cells; [2]): 0.8253
Directed Enrichment Score: MAPK (B16 cells; [2]): -1.437
Directed Enrichment Score: Matrix Remodeling and Metastasis (B16 cells; [2]): 1.1775
Directed Enrichment Score: Metabolic Stress (B16 cells; [2]): -2.3196
Directed Enrichment Score: Myeloid Compartment (B16 cells; [2]): 0.1922
Directed Enrichment Score: NF-kappaB Signaling (B16 cells; [2]): -0.7242
Directed Enrichment Score: Notch Signaling (B16 cells; [2]): -1.0152
Directed Enrichment Score: PI3K-Akt (B16 cells; [2]): -1.358
Directed Enrichment Score: TGF-beta Signaling (B16 cells; [2]): -2.2971
Directed Enrichment Score: Wnt Signaling (B16 cells; [2]): -2.3166
Undirected Enrichment Score: Angiogenesis (B16 cells; [2]): 2.7066
Undirected Enrichment Score: Antigen Presentation (B16 cells; [2]): 1.2276
Undirected Enrichment Score: Apoptosis (B16 cells; [2]): 2.3071
Undirected Enrichment Score: Autophagy (B16 cells; [2]): 3.5536
Undirected Enrichment Score: Cell Proliferation (B16 cells; [2]): 2.1596
Undirected Enrichment Score: Costimulatory Signaling (B16 cells; [2]): 2.2732
Undirected Enrichment Score: Cytokine and Chemokine Signaling (B16 cells; [2]): 1.9551
Undirected Enrichment Score: Cytotoxicity (B16 cells; [2]): 1.637
Undirected Enrichment Score: DNA Damage Repair (B16 cells; [2]): 2.4043
Undirected Enrichment Score: Epigenetic Regulation (B16 cells; [2]): 2.4405
Undirected Enrichment Score: Hedgehog Signaling (B16 cells; [2]): 3.1229
Undirected Enrichment Score: Hypoxia (B16 cells; [2]): 2.9454
Undirected Enrichment Score: Immune Cell Adhesion and Migration (B16 cells; [2]): 1.8838
Undirected Enrichment Score: Interferon Signaling (B16 cells; [2]): 1.5239
Undirected Enrichment Score: JAK-STAT Signaling (B16 cells; [2]): 2.5395
Undirected Enrichment Score: Lymphoid Compartment (B16 cells; [2]): 1.1946
Undirected Enrichment Score: MAPK (B16 cells; [2]): 2.756
Undirected Enrichment Score: Matrix Remodeling and Metastasis (B16 cells; [2]): 2.3587
Undirected Enrichment Score: Metabolic Stress (B16 cells; [2]): 2.8728
Undirected Enrichment Score: Myeloid Compartment (B16 cells; [2]): 1.2711
Undirected Enrichment Score: NF-kappaB Signaling (B16 cells; [2]): 1.6264
Undirected Enrichment Score: Notch Signaling (B16 cells; [2]): 2.5438
Undirected Enrichment Score: PI3K-Akt (B16 cells; [2]): 2.7297
Undirected Enrichment Score: TGF-beta Signaling (B16 cells; [2]): 3.339
Undirected Enrichment Score: Wnt Signaling (B16 cells; [2]): 3.1574
NanoString scores: Bcl2l1 (B16 cells; [3]): 0.4361 and 0.5098 and 0.454
NanoString scores: Cd68 (B16 cells; [3]): 1.981 and 1.6572 and 1.978
NanoString scores: Mdm2 (B16 cells; [3]): 0.6422 and 0.6786 and 0.4527
pathways downregulated by MMAE (gene set analysis) (B16 cells; downregulated pathways / all pathways): 17/25
